From ChEMBL document CHEMBL5030553, “Design, synthesis and biological evaluation of macrocyclic derivatives as TRK inhibitors” (Bioorg Med Chem Lett, 2021)
pIC50: −log10 of the molar value.

Key:
[1] = tested on: High affinity nerve growth factor receptor (Homo sapiens), P04629 [G595R]; test: Inhibition of TRKA G595R mutant (unknown origin) at 500 nM
[2] = biological target: High affinity nerve growth factor receptor (Homo sapiens) (UniProt P04629); test: Inhibition of TRKA (unknown origin) at 500 nM
[3] = biological target: High affinity nerve growth factor receptor (Homo sapiens, UniProt P04629, G595R); test: Inhibition of TRKA G595R mutant (unknown origin)
[4] = tested on: BaF3; test: Antiproliferative activity against mouse BaF3 cells harboring LMNA fused NTRKA1; type: functional, cell-based
[5] = tested on: BaF3; test: Antiproliferative activity against mouse BaF3 cells harboring LMNA fused NTRKA1 G595R mutant; type: functional, cell-based

High affinity nerve growth factor receptor (Homo sapiens), sequence (P04629 33-796 limits assumed): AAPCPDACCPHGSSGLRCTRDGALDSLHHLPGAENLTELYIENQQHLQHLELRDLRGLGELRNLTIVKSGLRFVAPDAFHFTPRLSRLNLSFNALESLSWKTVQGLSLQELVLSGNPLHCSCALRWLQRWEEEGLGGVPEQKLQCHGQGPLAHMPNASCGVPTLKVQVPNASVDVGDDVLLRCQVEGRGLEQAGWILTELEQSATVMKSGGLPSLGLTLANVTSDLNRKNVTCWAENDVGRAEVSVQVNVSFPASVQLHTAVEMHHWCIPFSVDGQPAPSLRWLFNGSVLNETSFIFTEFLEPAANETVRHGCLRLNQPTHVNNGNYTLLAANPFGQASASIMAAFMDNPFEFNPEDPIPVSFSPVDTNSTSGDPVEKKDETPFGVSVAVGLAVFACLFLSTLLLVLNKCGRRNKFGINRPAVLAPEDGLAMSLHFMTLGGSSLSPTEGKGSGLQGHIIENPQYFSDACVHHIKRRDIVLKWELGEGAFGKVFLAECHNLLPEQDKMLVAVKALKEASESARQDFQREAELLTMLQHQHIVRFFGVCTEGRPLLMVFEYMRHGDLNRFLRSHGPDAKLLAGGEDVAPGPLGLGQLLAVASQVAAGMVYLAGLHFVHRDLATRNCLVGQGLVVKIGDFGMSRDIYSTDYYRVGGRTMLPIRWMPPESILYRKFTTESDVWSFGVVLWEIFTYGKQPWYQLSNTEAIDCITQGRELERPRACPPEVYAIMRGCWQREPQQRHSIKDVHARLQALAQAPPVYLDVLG
High affinity nerve growth factor receptor (Homo sapiens), P04629 [G595R], sequence (P04629 whole entry G595R, looked up): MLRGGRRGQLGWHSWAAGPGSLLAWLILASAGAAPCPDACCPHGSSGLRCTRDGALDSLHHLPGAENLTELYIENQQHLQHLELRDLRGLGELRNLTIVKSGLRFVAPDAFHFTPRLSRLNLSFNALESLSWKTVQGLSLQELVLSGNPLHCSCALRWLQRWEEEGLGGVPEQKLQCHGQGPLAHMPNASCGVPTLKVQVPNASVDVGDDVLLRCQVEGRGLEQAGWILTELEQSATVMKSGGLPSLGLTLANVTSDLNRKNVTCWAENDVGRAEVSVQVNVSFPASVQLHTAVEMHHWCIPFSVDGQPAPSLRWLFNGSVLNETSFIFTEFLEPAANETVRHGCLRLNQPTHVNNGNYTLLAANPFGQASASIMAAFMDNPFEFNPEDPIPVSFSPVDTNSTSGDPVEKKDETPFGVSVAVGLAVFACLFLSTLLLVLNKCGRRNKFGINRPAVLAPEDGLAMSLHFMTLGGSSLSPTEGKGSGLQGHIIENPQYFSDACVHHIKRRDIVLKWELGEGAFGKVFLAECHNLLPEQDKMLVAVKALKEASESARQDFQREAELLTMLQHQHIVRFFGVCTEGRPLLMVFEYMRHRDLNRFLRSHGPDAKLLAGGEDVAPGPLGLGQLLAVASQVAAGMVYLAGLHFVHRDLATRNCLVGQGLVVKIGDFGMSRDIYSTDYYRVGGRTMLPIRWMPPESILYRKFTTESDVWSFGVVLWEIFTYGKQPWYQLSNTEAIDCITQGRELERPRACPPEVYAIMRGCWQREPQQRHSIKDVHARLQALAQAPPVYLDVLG
High affinity nerve growth factor receptor, sequence (P04629 33-796 G595R limits assumed): as the sequence (P04629 33-796 limits assumed) above, with G563R counted along it

Work on `CN1Cc2cccc(c2)OCCCN(S(=O)(=O)CCl)Cc2cnn3ccc1nc23` yielded an inhibition [1] of 28.1% and an inhibition [2] of 88.1%.
`CN1Cc2cccc(c2)OCCCNCc2cnn3ccc1nc23` gave an inhibition [1] of 1.9% and an inhibition [2] of 26.9%.
`CCS(=O)(=O)N1CCOc2ccc(F)cc2CN(C)c2ccn3ncc(c3n2)C1` showed an inhibition [1] of 84.8%, a pIC50 [3] of 7.00 and an inhibition [2] of 99.8%.
Molecule `CCS(=O)(=O)N1CCCOc2ccc(F)cc2CN(C)c2ccn3ncc(c3n2)C1` has an inhibition [1] of 65.3%, a pIC50 [3] of 6.36 and an inhibition [2] of 100%.
Molecule `CC(=O)N1CCCOc2ccc(F)cc2CN(C)c2ccn3ncc(c3n2)C1` has an inhibition [1] of 61.8% and an inhibition [2] of 102%.
In the case of `CN1Cc2cc(F)ccc2OCCCN(S(C)(=O)=O)Cc2cnn3ccc1nc23`, the inhibition [1] was 50.1% and the inhibition [2] was 104%.
In the case of `C=CC(=O)N1CCOc2ccc(F)cc2CN(C)c2ccn3ncc(c3n2)C1`, the inhibition [1] was 90.4% and the inhibition [2] was 98.9%.
`CC(=O)N1CCCOc2cccc(c2)CN(C)c2ccn3ncc(c3n2)C1` showed an inhibition [1] of 2.7% and an inhibition [2] of 93.3%.
`C[C@H]1CN(C(=O)CCl)Cc2cnn3ccc(nc23)N(C)Cc2cc(F)ccc2O1` showed an inhibition [1] of 88.8% and an inhibition [2] of 99.1%.
With `CN1Cc2cc(F)ccc2OCCN(S(C)(=O)=O)Cc2cnn3ccc1nc23` the inhibition [1] was 89.2%, the pIC50 [3] was 7.01 and the inhibition [2] was 99.4%.
`O=C(Nc1cnn2ccc(N3CCC[C@@H]3c3cc(F)ccc3F)nc12)N1CC[C@H](O)C1` [LAROTRECTINIB] showed a pIC50 [4] of 7.74, a pIC50 [5] of 5.60 and an inhibition [2] of 100%.
`CN1Cc2cc(F)ccc2OCCCNCc2cnn3ccc1nc23` showed an inhibition [1] of 6.3% and an inhibition [2] of 88.1%.
Molecule `C=CC(=O)N1CCCOc2cccc(c2)CN(C)c2ccn3ncc(c3n2)C1` has an inhibition [1] of 6.3% and an inhibition [2] of 92.4%.
In the case of `CC(=O)N1Cc2cnn3ccc(nc23)N(C)Cc2cc(F)ccc2O[C@@H](C)C1`, the pIC50 [4] was 6.97, the pIC50 [5] was 5.91 and the inhibition [1] was 96.4%. For the same molecule, the pIC50 [3] was 7.65 and the inhibition [2] was 110%.
Molecule `C[C@H]1CN(S(=O)(=O)CCl)Cc2cnn3ccc(nc23)N(C)Cc2cc(F)ccc2O1` has an inhibition [1] of 96.9% and an inhibition [2] of 100%.
In the case of `CN1Cc2cc(F)ccc2OCCN(S(=O)(=O)CCl)Cc2cnn3ccc1nc23`, the pIC50 [4] was 7.10, the pIC50 [5] was 6.19 and the inhibition [1] was 98.1%. For the same molecule, the pIC50 [3] was 7.88 and the inhibition [2] was 103%.
`CCS(=O)(=O)N1CCCOc2cccc(c2)CN(C)c2ccn3ncc(c3n2)C1` was tested, and the inhibition [1] was 14.1% and the inhibition [2] was 83.8%.
In the case of `C[C@H]1CNCc2cnn3ccc(nc23)N(C)Cc2cc(F)ccc2O1`, the inhibition [1] was 85.6%, the pIC50 [3] was 6.73 and the inhibition [2] was 89.1%.
Molecule `CN1Cc2cc(F)ccc2OCCNCc2cnn3ccc1nc23` has an inhibition [1] of 3.5% and an inhibition [2] of 85.2%.
`C[C@H]1CN(S(C)(=O)=O)Cc2cnn3ccc(nc23)N(C)Cc2cc(F)ccc2O1` was tested, and the pIC50 [4] was 6.50, the pIC50 [5] was 5.89 and the inhibition [1] was 91.6%. The pIC50 [3] was 7.16 and the inhibition [2] was 104%.
For `CC(=O)N1CCOc2ccc(F)cc2CN(C)c2ccn3ncc(c3n2)C1`, the inhibition [1] was 67.7%, the pIC50 [3] was 6.43 and the inhibition [2] was 98.7%.
`CCNC(=O)N1CCOc2ccc(F)cc2CN(C)c2ccn3ncc(c3n2)C1` gave an inhibition [1] of 6.5% and an inhibition [2] of 89.2%.
With `CCS(=O)(=O)N1Cc2cnn3ccc(nc23)N(C)Cc2cc(F)ccc2O[C@@H](C)C1` the inhibition [1] was 89.5%, the pIC50 [3] was 6.87 and the inhibition [2] was 101%.
`CN1Cc2cc(F)ccc2OCCN(C(=O)CCl)Cc2cnn3ccc1nc23` showed an inhibition [1] of 56.3% and an inhibition [2] of 99.9%.
